Source: ChEMBL document CHEMBL5230157, “The natural anthraquinone dye purpurin exerts antibacterial activity by perturbing the FtsZ assembly” (Bioorg Med Chem, 2021)

Target: T1, Cell division protein FtsZ (Bacillus subtilis, UniProt A5Z1V5)
T1 sequence (A5Z1V5 whole entry): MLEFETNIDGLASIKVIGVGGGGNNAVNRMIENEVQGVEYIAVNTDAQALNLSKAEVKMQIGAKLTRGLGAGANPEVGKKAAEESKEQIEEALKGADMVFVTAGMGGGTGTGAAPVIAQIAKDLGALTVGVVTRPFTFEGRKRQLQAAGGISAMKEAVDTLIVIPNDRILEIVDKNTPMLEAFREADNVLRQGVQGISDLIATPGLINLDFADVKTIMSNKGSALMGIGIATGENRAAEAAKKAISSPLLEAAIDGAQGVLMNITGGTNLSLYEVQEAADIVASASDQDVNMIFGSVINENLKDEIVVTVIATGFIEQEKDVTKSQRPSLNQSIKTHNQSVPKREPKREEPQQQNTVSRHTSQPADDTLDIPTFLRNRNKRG
Experiment: Binding affinity to Bacillus subtilis FtsZ assessed as dissociation constant of intrinsic tryptophan quenching incubated for 30 mins by double reciprocal plot analysis

CC1=CC(=O)c2c(O)cccc2C1=O [PLUMBAGIN]
Kd: 15.8 µM
